According to article PMC4773869, “Influence of plasma-activated compounds on melanogenesis and tyrosinase activity” (Scientific Reports, 2016):
Like-named read-outs stand apart in the source and are kept apart here.

Columns and labels:
mushroom tyrosinase [1] = molecular target: T1, mushroom tyrosinase (Agaricus bisporus, UniProt C7FF04); test: Mushroom tyrosinase inhibition assay (L-DOPA, dopachrome at 492 nm); format: biochemical; parameters: purchased Sigma Chemical Co. USA; details: mean ± SD, read-out: Tyrosinase inhibitory activity IC50 (converted)
Protocol: To determine the action of ED and PAED, we checked the mushroom tyrosinase inhibitory activity in a cell-free environment. […] Moreover, after plasma treatment for different time intervals, we observed that inhibition activity of 4a, 4b, 4d and 6a was improved more as compared to without treatment. […] However, we observed the highest relative improvement in IC50 value of compound 4b among all ED compounds at 10 min plasma treatment. […] Therefore, we used the 4b and 6a compounds for further investigations, based on the decrease in IC50 value to a global minimum of the experiment after plasma treatment.
The mushroom tyrosinase was used for in vitro bioassays as described previously with some modifications. Briefly, 140 μl of phosphate buffer (20 mM, pH 6.8), 20 μl of mushroom tyrosinase (30 U/ml), and 20 μl of the inhibitor solution were placed in the wells of a 96-well plate. After pre-incubation for 10 min at room temperature, 20 μl of L-DOPA (3,4-dihydroxyphenylalanine) (0.85 mM) was added and the plate was further incubated at 25 °C for 20 min. Subsequently the absorbance of dopachrome was measured at 492 nm using a micro plate reader (OPTI Max, Tunable). Kojic acid was used as a reference inhibitor. The extent of inhibition by the test compounds was expressed as the […] necessary to achieve 50% inhibition (IC50). Each concentration was analyzed in three independent experiments run in triplicate. The IC50 values were determined by the data analysis and graphing software, Origin.
Target sequence in this assay (C7FF04 1-392): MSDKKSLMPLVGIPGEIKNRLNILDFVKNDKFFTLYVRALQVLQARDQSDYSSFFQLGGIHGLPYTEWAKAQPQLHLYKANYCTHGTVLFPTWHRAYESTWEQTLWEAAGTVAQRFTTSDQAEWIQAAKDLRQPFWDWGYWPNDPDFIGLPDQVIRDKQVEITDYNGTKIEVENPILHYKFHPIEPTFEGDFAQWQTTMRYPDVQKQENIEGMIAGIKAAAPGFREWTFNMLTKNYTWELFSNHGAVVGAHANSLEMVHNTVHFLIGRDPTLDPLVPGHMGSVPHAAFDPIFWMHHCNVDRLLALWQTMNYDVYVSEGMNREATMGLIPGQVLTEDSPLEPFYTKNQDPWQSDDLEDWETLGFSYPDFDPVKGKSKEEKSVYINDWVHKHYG

B16F10 cells [2] = test: Intracellular melanin content measurement; format: cell-based, murine; details: for activity at 35 µg/mL: Mus musculus, B16-F10, 35 μg/ml, read-out: melanin content, % of control (100%); for melanin, % of control (normalized to 100%): as-synthesized ED, no α-MSH, concentration not given
Protocol: Melanoma (1.5 × 10^5) cells were seeded in cell culture plates and allowed to attach for 24 hr. Then each eugenol derivative was added and tested separately for melanin activation after 24 hr of incubation. After incubation, cells were detached using trypsin/EDTA and centrifuged at 1000 rpm for 5 min to collect the cell pellets. The cell pellets were solubilized in 1N NaOH at 60 °C for 1 hr. The melanin content was measured spectrophotometrically at 405 nm wavelength using a microplate reader (BioTek, synergy HT)[56]. […] Plasma-treated and non-plasma-treated ED (4b and 6a) were added to the cells, pre-incubated with or without α-MSH (100 nM) for a further 24 hr and melanin content was assayed as described above. Kojic acid can inhibit and α-MSH can stimulate the melanin in the cells, therefore we used them as negative and positive controls.

[3] = system: MITF expression in B16F10 cells; test: Western blot, MITF expression; format: cell-based, murine; details: 24 hr; for expression of MITF versus control: ED (as-synthesized); for expression of MITF versus ED: PAED (plasma-treated)
Protocol: Melanoma cells were incubated with as-synthesized and plasma-treated 4b and 6a test compounds for 24 hr. Following incubation, treated and untreated cells were lysed in RIPA buffer (Cell Signaling Technology, USA), whole cell protein was extracted and subjected to electrophoresis in 12% SDS-PAGE, and blotted onto nitrocellulose membranes. The membrane was probed with the antibodies raised against MITF, tyrosinase and TRP1 (Abcam, USA). The bands were detected using Super Signal West Pico Chemiluminescent Substrate (Pierce, Rockford, IL, USA) and images were taken using a Vilver imaging system (Vilver, Upland, CA, USA).

mushroom tyrosinase [4] = molecular target: T1, mushroom tyrosinase; test: Kinetic analysis of the inhibition of mushroom tyrosinase (Lineweaver-Burk and Dixon plots); format: biochemical; details: Lineweaver-Burk plot; substrate L-DOPA; as-synthesized compound
Protocol: Latter, we studied the kinetic behavior of mushroom tyrosinase during the oxidation of L-DOPA with the selective ED compounds (4b and 6a). In the present investigation, the oxidation reaction of L-DOPA by mushroom tyrosinase follows the Michaelis-Menten kinetics. The inhibitory mechanism of both of the compounds was determined by using Lineweaver-Burk plot (double reciprocal plot) as well as a Dixon plot at various concentrations of substrate L-DOPA (0.0, 0.125, 0.25, 0.5, 1.0 and 2.0 mM), as shown in Fig. 4. The double-reciprocal plot of enzyme activity in the presence of compound 4b with concentration 0.0, 18.0, 36.5, 73, 146 μM and compound 6a with concentration 0.0, 6.7, 13.5, 27 μM are shown in Fig. 4(a,b), respectively. […] The Dixon plot was determined by 1/V versus inhibitor concentrations [I] at various concentrations of substrate in mM. […] Further, to determine the action of these eugenol derivatives on the structure of tyrosinase enzyme, we performed CD analysis and molecular docking studies. A series of experiments were performed to determine the inhibition kinetics using the following method. […] The formation of DOPAchrome was continuously monitored at 475 nm for 5 min at a 30 sec intervals in the microplate reader after the addition of the enzyme.
Target sequence in this assay (C7FF04 2-392): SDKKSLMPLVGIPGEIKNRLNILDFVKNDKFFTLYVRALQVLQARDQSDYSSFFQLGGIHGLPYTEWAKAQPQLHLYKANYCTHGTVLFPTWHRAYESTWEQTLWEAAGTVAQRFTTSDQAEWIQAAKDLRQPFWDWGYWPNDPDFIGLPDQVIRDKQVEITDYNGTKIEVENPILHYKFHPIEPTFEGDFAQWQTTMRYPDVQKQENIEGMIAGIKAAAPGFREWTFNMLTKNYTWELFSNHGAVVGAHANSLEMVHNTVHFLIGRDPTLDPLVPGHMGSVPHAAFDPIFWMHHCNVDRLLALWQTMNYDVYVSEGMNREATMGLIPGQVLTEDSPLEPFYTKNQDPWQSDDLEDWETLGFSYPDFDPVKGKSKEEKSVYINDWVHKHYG

[5] = system: intracellular ROS in B16F10 cells; test: Intracellular ROS measurement (carboxy-H2DCFDA); format: cell-based, murine; details: for intracellular ROS level, PAED compared to ED: plasma-treated compound versus as-synthesized compound
Protocol: Intracellular reactive oxygen species (ROS) were quantified using carboxy-H2DCFDA (5-(and 6)-carboxy-20,70-dichlorodihydrofluorescein diacetate), by monitoring the fluorescence intensity.
Briefly, various concentrations of as-synthesized 4b and 6a or plasma-treated 4b and 6a were incubated with cells. After 24 hr, the cells were centrifuged for 5 min at 1000 rpm and the collected cell pellet was washed with PBS and labeled with carboxy-H2DCFDA dye following 30 min of incubation at 37 °C. The samples were centrifuged again and each pellet was mixed with 500 μl PBS. The 200 μl samples were then transferred in 96-well plates (black plate, clear bottom, corning incorporated USA) and fluorescence was measured at excitation/emission: 485/528 nm using a microplate reader.

B16F10 cells [6] = test: Cell morphology of melanoma cells (microscopy); format: cell-based, murine; details: 14-42 μg/ml, 24 hr, as-synthesized
Protocol: For cell morphology, the melanoma cells were seeded in cell culture plates (SPL Korea) and incubated at 37 °C (5% CO2 atmosphere). The cells were then incubated with the various concentrations of 4b and 6a (0 (con), 14, 21, 28, 35, and 42 μg/ml) following 24 hr incubation. The cell morphology was accessed and images were captured using an inverted fluorescent microscope (Nikon, ECLIPSE, Ti).

[7] = Con: as-synthesized, before plasma treatment, cell-free
[8] = compound after 3 min N2 APPJ plasma treatment
[9] = compound after 5 min N2 APPJ plasma treatment
[10] = compound after 10 min N2 APPJ plasma treatment

IC50 (mushroom tyrosinase [1]; [7]) [µM] | IC50 (mushroom tyrosinase [1]; [8]) [µM] | IC50 (mushroom tyrosinase [1]; [9]) [µM] | IC50 (mushroom tyrosinase [1]; [10]) [µM] | melting point [°C] | type of inhibition (mushroom tyrosinase [4]) | effect on cell morphology (B16F10 cells [6]) | SMILES | activity at 35 µg/mL (B16F10 cells [2]; after plasma treatment for 10 min, absence of α-MSH) [%] | activity at 35 µg/mL (B16F10 cells [2]; as-synthesized, absence of α-MSH) [%] | activity at 35 µg/mL (B16F10 cells [2]; as-synthesized, presence of α-MSH) [%] | melanin, % of control (normalized to 100%) (B16F10 cells [2]) [%] | expression of MITF versus control [3] | expression of MITF versus ED [3] | intracellular ROS, comparison between compounds ([5]; independent of plasma treatment) | intracellular ROS level, PAED compared to ED [5]
84.7 | 70.1 | 67.2 | 40.9 | 81 to 83 | competitive inhibitor | no effect on cell morphology | C=CCc1ccc(OC(=O)COC(=O)c2ccc(O)cc2)c(OC)c1 [4b, 2-[2-methoxy-4-(prop-2-en-1-yl)phenoxy]-2-oxoethyl 4-hydroxybenzoate] | 143 | 125 | 156 | 126 | higher expression | more expression | higher intracellular ROS than 6a | higher intracellular ROS levels
13.6 | 13.6 | 13.6 | 8.14 | 114 to 116 | uncompetitive inhibitor | no effect on cell morphology | C=CCc1ccc(OC(=O)COC(=O)/C=C/c2ccc(O)cc2)c(OC)c1 [6a, 2-[2-methoxy-4-(prop-2-en-1-yl)phenoxy]-2-oxoethyl(2E)-3-(4-hydroxyphenyl)prop-2-enoate] | – | – | – | 125 | higher expression | more expression | – | higher intracellular ROS levels
